The text below walks through data of patent US9987364B2, “Water-swellable polymers” (Ferring B.V., priority 2002, dated 2018).

Data set [1] in a line: In vitro drug release from pessaries, USP Method XXIII Apparatus 2. It is filed as physicochemical. Particulars: 37° C., 50 rpm. How it is done:
The drug loaded polymer were analysed for in vitro drug release following USP Method XXIII, Apparatus 2 at 37° C., with 50 rpm paddle speed. Drug release was analysed by ultraviolet spectroscopy or high pressure liquid chromatography (HPLC) as appropriate.
Rate of drug release k values of each dissolution profile was determined by calculating the slope of graph % drug release versus square root time. All the linear relationship between % drug release and square root time has R^2 correlation value […].

The conditions of data set [2]: cited from earlier work.
Where [3] appears, read: from A03003 (CLP) cross-linked polymer pessaries.
[4] abbreviates: from A03030 (LP) linear polymer pessaries.
[5] abbreviates: from A03032 (LP) linear polymer pessaries.

Take `CC[C@H](C)[C@@H]1NC(=O)[C@H](Cc2ccc(O)cc2)NC(=O)[C@@H](N)CSSC[C@@H](C(=O)N2CCC[C@H]2C(=O)N[C@@H](CC(C)C)C(=O)NCC(N)=O)NC(=O)[C@H](CC(N)=O)NC(=O)[C@H](CCC(N)=O)NC1=O` [OXY, Oxytocin]: the results for the “Rate of drug release, k” value in data set [1] (setting [3]), in data set [1] (setting [4]) and in data set [1] (setting [5]) were 6.749 minute^−0.5, 7.875 minute^−0.5 and 7.85 minute^−0.5, respectively.
As to `CCCCC(C)(O)C/C=C/[C@H]1[C@H](O)CC(=O)[C@@H]1CCCCCCC(=O)OC` (mixture of isomers) [MIS, misoprostol], the “Drug solubility (in water), in words” value in data set [2] was “Insoluble”.
Consider `CC(C)(C)NCC(O)c1cc(O)cc(O)c1` (centres unmarked) [TBS, Terbutaline sulphate], for which, in data set [2], the “Drug solubility (in water), in words” value is recorded as “Soluble”. The “Rate of drug release, k” value amounted to 13.628 minute^−0.5 in data set [1] (setting [3]), 13.262 minute^−0.5 in data set [1] (setting [4]) and 11.954 minute^−0.5 in data set [1] (setting [5]).
For `CC(=O)[C@H]1CC[C@H]2[C@@H]3CCC4=CC(=O)CC[C@]4(C)[C@H]3CC[C@]12C` [PRO, Progesterone], the “Drug solubility (in water), in words” value in data set [2] is “Insoluble”. The figures for the “Rate of drug release, k” value in data set [1] (setting [3]) and in data set [1] (from A03033 (LP) linear polymer pessaries) were 2.414 minute^−0.5 and 1.256 minute^−0.5, respectively.
